The source of these data is ChEMBL document CHEMBL3611970, “Synthesis and evaluation of isatin-β-thiosemicarbazones as novel agents against antibiotic-resistant Gram-positive bacterial species” (2015).

In brackets after ≈: the same amount, converted by molar mass.

What all share (format): functional
Assay [1] has as its system Staphylococcus aureus. Description: Antimicrobial activity against methicillin-resistant Staphylococcus aureus 6281 clinical isolate after 16 hrs by broth microdilution method. Particulars: Staphylococcus aureus, 6281, 16 h. On the technique in general: Broth dilution looks for growth in wells or tubes with falling amounts of substance.
The subject of a further assay is Bacillus spizizenii. As to the kind of experiment: Antimicrobial activity against Bacillus subtilis ATCC 6633 after 16 hrs by broth microdilution method. The following applies: ATCC 6633, 16 h.
Assay [2] concerns Staphylococcus aureus. As to the kind of experiment: Antimicrobial activity against Staphylococcus aureus ATCC 6538 after 16 hrs by broth microdilution method. Particulars: ATCC 6538, 16 h.
Assay [3] relates to Enterococcus faecalis. Description: Antimicrobial activity against Enterococcus faecalis VRE-309 after 16 hrs by broth microdilution method. The following applies: VRE-309, 16 h.
Assay [4] has as its system Staphylococcus aureus. As to the kind of experiment: Antimicrobial activity against methicillin-resistant Staphylococcus aureus 309-6 clinical isolate after 16 hrs by broth microdilution method. Particulars: 309-6, 16 h.
The test system of assay [5] is Staphylococcus aureus. As to the kind of experiment: Antimicrobial activity against methicillin-resistant Staphylococcus aureus 309-4 clinical isolate after 16 hrs by broth microdilution method. Particulars: 309-4, 16 h.
Assay [6] concerns Staphylococcus aureus. Description: Antimicrobial activity against methicillin-resistant Staphylococcus aureus 6-42 clinical isolate after 16 hrs by broth microdilution method. Particulars: 6-42, 16 h.
The subject of assay [7] is Staphylococcus aureus. As to the kind of experiment: Antimicrobial activity against methicillin-resistant Staphylococcus aureus 309-8 clinical isolate after 16 hrs by broth microdilution method. The following applies: 309-8, 16 h.
The subject of assay [8] is Staphylococcus aureus. Description: Antimicrobial activity against methicillin-resistant Staphylococcus aureus 309-7 clinical isolate after 16 hrs by broth microdilution method. The following applies: 309-7, 16 h.
Assay [9] concerns Staphylococcus aureus. Description: Antimicrobial activity against methicillin-resistant Staphylococcus aureus Chaoyang clinical isolate after 16 hrs by broth microdilution method.
The subject of another assay is Pseudomonas aeruginosa. Description: Antimicrobial activity against Pseudomonas aeruginosa PAO1 after 16 hrs by broth microdilution method. The following applies: PAO1, 16 h.
The subject of the next assay is Klebsiella pneumoniae. As to the kind of experiment: Antimicrobial activity against Klebsiella pneumoniae KP-249 clinical isolate after 16 hrs by broth microdilution method. Particulars: KP-249, 16 h.
The subject of assay [10] is Enterococcus faecalis. As to the kind of experiment: Antimicrobial activity against vancomycin-susceptible Enterococcus faecalis after 16 hrs by broth microdilution method.
The test system of assay [11] is Staphylococcus aureus. As to the kind of experiment: Antimicrobial activity against methicillin-resistant Staphylococcus aureus 309-3 clinical isolate after 16 hrs by broth microdilution method. Particulars: 309-3, 16 h.
In assay [12] the test system is Staphylococcus aureus. As to the kind of experiment: Antimicrobial activity against methicillin-resistant Staphylococcus aureus 8-24 clinical isolate after 16 hrs by broth microdilution method. Particulars: 8-24, 16 h.
Assay [13] has as its system Staphylococcus aureus. As to the kind of experiment: Antimicrobial activity against methicillin-resistant Staphylococcus aureus 8-21 clinical isolate after 16 hrs by broth microdilution method. Particulars: 8-21, 16 h.
Assay [14] relates to Staphylococcus aureus. Description: Antimicrobial activity against methicillin-resistant Staphylococcus aureus 309-1 clinical isolate after 16 hrs by broth microdilution method. Particulars: 309-1, 16 h.

What is called MIC is the least concentration at which growth counts as inhibited. High values mean a need for much substance, low ones inhibition by little substance. Consider `O=C1Nc2c(F)cccc2/C1=N/NC(=S)Nc1cccc(Cl)c1`, for which the MIC was 1.56 µg/mL (≈ 4.47 µM) against Staphylococcus aureus [1]; at most 0.78 µg/mL in the assay on Bacillus spizizenii; 0.78 µg/mL (≈ 2.24 µM) against Staphylococcus aureus [2]; 1.56 µg/mL (≈ 4.47 µM) against Enterococcus faecalis [3]; 1.56 µg/mL (≈ 4.47 µM) in the assay with Staphylococcus aureus [4]; 0.78 µg/mL (≈ 2.24 µM) against Staphylococcus aureus [5]. Moreover, the MIC is 0.39 µg/mL (≈ 1.12 µM) against Staphylococcus aureus [6]; 0.78 µg/mL (≈ 2.24 µM) against Staphylococcus aureus [7]; 0.39 µg/mL (≈ 1.12 µM) in the assay on Staphylococcus aureus [8]; 0.39 µg/mL (≈ 1.12 µM) in the assay with Staphylococcus aureus [9]; above 100 µg/mL with Pseudomonas aeruginosa; above 100 µg/mL in the assay on Klebsiella pneumoniae. In addition, the MIC came out at 1.56 µg/mL (≈ 4.47 µM) in the assay with Enterococcus faecalis [10]; 0.78 µg/mL (≈ 2.24 µM) against Staphylococcus aureus [11]; 0.78 µg/mL (≈ 2.24 µM) against Staphylococcus aureus [12]; 0.78 µg/mL (≈ 2.24 µM) in the assay on Staphylococcus aureus [13]; 0.78 µg/mL (≈ 2.24 µM) in the assay on Staphylococcus aureus [14].

Take `COc1cccc(NC(=S)N/N=C2\C(=O)Nc3c(I)cccc32)c1`: the minimal inhibitory concentration (MIC) against Staphylococcus aureus [1] is 25 µg/mL (≈ 55.3 µM); in the assay on Bacillus spizizenii it was 1.56 µg/mL (≈ 3.45 µM); in the assay on Staphylococcus aureus [2] it was above 100 µg/mL; in the assay with Enterococcus faecalis [3], 25 µg/mL (≈ 55.3 µM); with Staphylococcus aureus [4], 25 µg/mL (≈ 55.3 µM); against Staphylococcus aureus [5], 6.25 µg/mL (≈ 13.8 µM). Besides, the MIC against Staphylococcus aureus [6] was 3.12 µg/mL (≈ 6.9 µM); in the assay with Staphylococcus aureus [7] it was 25 µg/mL (≈ 55.3 µM); against Staphylococcus aureus [8], 3.12 µg/mL (≈ 6.9 µM); with Staphylococcus aureus [9], 1.56 µg/mL (≈ 3.45 µM); with Pseudomonas aeruginosa it was above 100 µg/mL; in the assay with Klebsiella pneumoniae, above 100 µg/mL. The minimum inhibitory concentration (MIC) was above 100 µg/mL in the assay with Enterococcus faecalis [10]; 12.5 µg/mL (≈ 27.6 µM) with Staphylococcus aureus [11]; 6.25 µg/mL (≈ 13.8 µM) with Staphylococcus aureus [12]; 6.25 µg/mL (≈ 13.8 µM) with Staphylococcus aureus [13]; 6.25 µg/mL (≈ 13.8 µM) in the assay on Staphylococcus aureus [14].

On to `O=C1Nc2c(I)cccc2/C1=N/NC(=S)Nc1cccc(F)c1`, for which the MIC in the assay with Staphylococcus aureus [1] is 3.12 µg/mL (≈ 7.09 µM); in the assay with Bacillus spizizenii, at most 0.78 µg/mL; against Staphylococcus aureus [2], 1.56 µg/mL (≈ 3.54 µM); against Enterococcus faecalis [3] it was 3.12 µg/mL (≈ 7.09 µM); against Staphylococcus aureus [4], 1.56 µg/mL (≈ 3.54 µM); against Staphylococcus aureus [5] it was 0.78 µg/mL (≈ 1.77 µM). Besides, the MIC in the assay with Staphylococcus aureus [6] was 0.78 µg/mL (≈ 1.77 µM); against Staphylococcus aureus [7], 0.78 µg/mL (≈ 1.77 µM); against Staphylococcus aureus [8] it was 0.78 µg/mL (≈ 1.77 µM); in the assay on Staphylococcus aureus [9], 0.78 µg/mL (≈ 1.77 µM); with Pseudomonas aeruginosa, above 100 µg/mL; against Klebsiella pneumoniae it was above 100 µg/mL. For the same compound, the MIC in the assay with Enterococcus faecalis [10] is 6.25 µg/mL (≈ 14.2 µM); in the assay on Staphylococcus aureus [11], 1.56 µg/mL (≈ 3.54 µM); against Staphylococcus aureus [12], 1.56 µg/mL (≈ 3.54 µM); in the assay with Staphylococcus aureus [13], 1.56 µg/mL (≈ 3.54 µM); against Staphylococcus aureus [14] it was 0.78 µg/mL (≈ 1.77 µM).

Regarding `O=C1Nc2c(Br)cccc2/C1=N/NC(=S)Nc1cccc(F)c1`, the MIC was 1.56 µg/mL (≈ 3.97 µM) in the assay on Staphylococcus aureus [1]; at most 0.78 µg/mL in the assay with Bacillus spizizenii; 1.56 µg/mL (≈ 3.97 µM) against Staphylococcus aureus [2]; 1.56 µg/mL (≈ 3.97 µM) with Enterococcus faecalis [3]; 1.56 µg/mL (≈ 3.97 µM) in the assay with Staphylococcus aureus [4]; 0.78 µg/mL (≈ 1.98 µM) against Staphylococcus aureus [5]. The MIC is 0.78 µg/mL (≈ 1.98 µM) in the assay on Staphylococcus aureus [6]; 0.78 µg/mL (≈ 1.98 µM) in the assay with Staphylococcus aureus [7]; 0.39 µg/mL (≈ 0.992 µM) against Staphylococcus aureus [8]; 0.39 µg/mL (≈ 0.992 µM) with Staphylococcus aureus [9]; above 100 µg/mL against Pseudomonas aeruginosa; above 100 µg/mL with Klebsiella pneumoniae. Also, the MIC came out at 3.12 µg/mL (≈ 7.93 µM) in the assay on Enterococcus faecalis [10]; 0.78 µg/mL (≈ 1.98 µM) with Staphylococcus aureus [11]; 0.78 µg/mL (≈ 1.98 µM) with Staphylococcus aureus [12]; 0.78 µg/mL (≈ 1.98 µM) in the assay on Staphylococcus aureus [13]; 0.78 µg/mL (≈ 1.98 µM) with Staphylococcus aureus [14].

As for `COc1ccccc1NC(=S)N/N=C1\C(=O)Nc2c(F)cccc21`, the MIC in the assay on Staphylococcus aureus [1], against Bacillus spizizenii, against Staphylococcus aureus [2], in the assay with Enterococcus faecalis [3], with Staphylococcus aureus [4] and with Staphylococcus aureus [5] was above 100 µg/mL each time. Further, the minimum inhibitory concentration (MIC) against Staphylococcus aureus [6], in the assay with Staphylococcus aureus [7], with Staphylococcus aureus [8], in the assay with Staphylococcus aureus [9], in the assay on Pseudomonas aeruginosa and against Klebsiella pneumoniae was above 100 µg/mL throughout. In addition, the MIC with Enterococcus faecalis [10], in the assay on Staphylococcus aureus [11], in the assay with Staphylococcus aureus [12], with Staphylococcus aureus [13] and in the assay with Staphylococcus aureus [14] was above 100 µg/mL in each case.

With `O=C1Nc2c(Cl)cccc2/C1=N/NC(=S)Nc1cccc(F)c1`, the MIC with Staphylococcus aureus [1] is 3.12 µg/mL (≈ 8.95 µM); in the assay with Bacillus spizizenii it was at most 0.78 µg/mL; in the assay with Staphylococcus aureus [2] it was 1.56 µg/mL (≈ 4.47 µM); against Enterococcus faecalis [3] it was 1.56 µg/mL (≈ 4.47 µM); with Staphylococcus aureus [4] it was 1.56 µg/mL (≈ 4.47 µM); against Staphylococcus aureus [5], 0.78 µg/mL (≈ 2.24 µM). For the same compound, the MIC with Staphylococcus aureus [6] was 0.78 µg/mL (≈ 2.24 µM); in the assay on Staphylococcus aureus [7], 1.56 µg/mL (≈ 4.47 µM); against Staphylococcus aureus [8], 0.78 µg/mL (≈ 2.24 µM); in the assay on Staphylococcus aureus [9], 0.39 µg/mL (≈ 1.12 µM); with Pseudomonas aeruginosa, above 100 µg/mL; against Klebsiella pneumoniae, above 100 µg/mL. For the same compound, the MIC came to 3.12 µg/mL (≈ 8.95 µM) against Enterococcus faecalis [10]; 1.56 µg/mL (≈ 4.47 µM) with Staphylococcus aureus [11]; 1.56 µg/mL (≈ 4.47 µM) against Staphylococcus aureus [12]; 1.56 µg/mL (≈ 4.47 µM) in the assay on Staphylococcus aureus [13]; 1.56 µg/mL (≈ 4.47 µM) against Staphylococcus aureus [14].
